In ChEMBL document CHEMBL4680201, “Design, synthesis, and pharmacological evaluation of 4- or 6-phenyl-pyrimidine derivatives as novel and selective Janus kinase 3 inhibitors” (Eur J Med Chem, 2020):
Active and inactive are the calls of the source. The rule behind the calls is not given here.

Legend:
[1] = molecular target: BLK (Tyrosine-protein kinase Blk) (Homo sapiens, UniProt P51451); assay: Inhibition of recombinant human His-tagged full length BLK expressed in baculovirus expression system at 100 nM using Tyr01 peptide as substrate incubated for 1 hr in presence of ATP by Z'-LYTE assay relative to control; settings: probe Tyr01 peptide
Mus musculus = assay: Immunosuppressive activity in Balb/c mouse model of oxazolone-induced delayed type hypersensitivity assessed as appearance of well structured tissue architecture at 30 mg/kg, po measured after 7 days by H and E staining based histopathological analysis; assay type: functional, organism-based; settings: time 7.0 day
[2] = molecular target: ERBB2 (Receptor tyrosine-protein kinase erbB-2) (Homo sapiens, UniProt P04626); assay: Inhibition of His-tagged human recombinant ERBB2 (676 to 1255 residues) expressed in baculovirus expression system at 100 nM using Tyr 06 as substrate preincubated for 1 hr in presence of ATP by Z'-LYTE assay relative to control; settings: probe Tyr 06
[3] = molecular target: T1, Tyrosine-protein kinase JAK3 (Homo sapiens) (UniProt P52333); assay: Irreversible inhibition of recombinant human GST-tagged JAK3 cytoplasmic domain (781 to 1124 residues) expressed in baculovirus expression system at IC90 using TK-substrate-biotin preincubated for 30 mins followed by 1000 fold dilution and measured after 24 hrs by HTRF assay; settings: time 24.5 hrs
T1 sequence (whole entry): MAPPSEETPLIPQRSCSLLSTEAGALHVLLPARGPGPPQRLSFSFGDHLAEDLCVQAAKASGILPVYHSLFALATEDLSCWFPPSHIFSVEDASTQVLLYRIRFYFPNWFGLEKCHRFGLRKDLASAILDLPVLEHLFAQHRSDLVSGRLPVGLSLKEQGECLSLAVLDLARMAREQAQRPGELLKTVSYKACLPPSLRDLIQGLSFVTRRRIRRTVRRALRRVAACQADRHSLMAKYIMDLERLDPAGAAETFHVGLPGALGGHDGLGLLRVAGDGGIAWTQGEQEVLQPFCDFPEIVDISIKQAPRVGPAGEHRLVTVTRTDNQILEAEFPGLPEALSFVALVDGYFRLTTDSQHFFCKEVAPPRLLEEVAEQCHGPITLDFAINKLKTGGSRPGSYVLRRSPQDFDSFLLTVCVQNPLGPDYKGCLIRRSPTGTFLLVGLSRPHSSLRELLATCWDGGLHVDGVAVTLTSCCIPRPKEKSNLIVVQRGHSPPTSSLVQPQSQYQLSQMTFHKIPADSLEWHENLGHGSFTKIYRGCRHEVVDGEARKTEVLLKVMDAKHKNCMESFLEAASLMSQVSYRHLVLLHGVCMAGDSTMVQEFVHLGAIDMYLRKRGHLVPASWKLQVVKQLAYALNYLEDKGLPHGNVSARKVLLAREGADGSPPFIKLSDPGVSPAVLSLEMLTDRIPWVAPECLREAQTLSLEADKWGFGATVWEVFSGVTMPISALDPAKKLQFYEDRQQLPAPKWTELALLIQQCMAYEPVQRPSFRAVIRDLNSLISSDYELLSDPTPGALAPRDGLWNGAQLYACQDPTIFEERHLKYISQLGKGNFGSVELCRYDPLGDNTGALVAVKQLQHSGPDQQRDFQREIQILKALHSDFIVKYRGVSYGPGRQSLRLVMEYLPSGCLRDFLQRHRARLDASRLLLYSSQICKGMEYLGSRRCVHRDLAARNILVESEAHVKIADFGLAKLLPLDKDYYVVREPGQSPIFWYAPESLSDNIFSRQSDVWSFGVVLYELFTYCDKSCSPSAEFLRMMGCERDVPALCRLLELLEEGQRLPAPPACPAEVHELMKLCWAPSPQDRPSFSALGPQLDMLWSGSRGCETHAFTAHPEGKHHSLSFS

BLK (Tyrosine-protein kinase Blk), sequence (P51451 whole entry): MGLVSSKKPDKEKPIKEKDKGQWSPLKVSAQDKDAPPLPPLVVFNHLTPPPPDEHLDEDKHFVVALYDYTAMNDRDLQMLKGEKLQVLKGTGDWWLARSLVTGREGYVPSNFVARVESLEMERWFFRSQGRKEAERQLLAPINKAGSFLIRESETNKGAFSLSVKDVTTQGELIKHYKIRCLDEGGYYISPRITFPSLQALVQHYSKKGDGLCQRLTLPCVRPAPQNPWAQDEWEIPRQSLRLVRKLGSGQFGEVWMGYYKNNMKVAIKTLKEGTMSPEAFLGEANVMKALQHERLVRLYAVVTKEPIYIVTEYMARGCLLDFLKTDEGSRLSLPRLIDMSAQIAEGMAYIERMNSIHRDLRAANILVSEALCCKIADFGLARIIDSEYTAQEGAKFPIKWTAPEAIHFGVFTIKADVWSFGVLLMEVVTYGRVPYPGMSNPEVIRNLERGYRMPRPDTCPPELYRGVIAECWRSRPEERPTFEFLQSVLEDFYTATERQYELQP
ERBB2 (Receptor tyrosine-protein kinase erbB-2), sequence (P04626 whole entry, the tested form may be a part): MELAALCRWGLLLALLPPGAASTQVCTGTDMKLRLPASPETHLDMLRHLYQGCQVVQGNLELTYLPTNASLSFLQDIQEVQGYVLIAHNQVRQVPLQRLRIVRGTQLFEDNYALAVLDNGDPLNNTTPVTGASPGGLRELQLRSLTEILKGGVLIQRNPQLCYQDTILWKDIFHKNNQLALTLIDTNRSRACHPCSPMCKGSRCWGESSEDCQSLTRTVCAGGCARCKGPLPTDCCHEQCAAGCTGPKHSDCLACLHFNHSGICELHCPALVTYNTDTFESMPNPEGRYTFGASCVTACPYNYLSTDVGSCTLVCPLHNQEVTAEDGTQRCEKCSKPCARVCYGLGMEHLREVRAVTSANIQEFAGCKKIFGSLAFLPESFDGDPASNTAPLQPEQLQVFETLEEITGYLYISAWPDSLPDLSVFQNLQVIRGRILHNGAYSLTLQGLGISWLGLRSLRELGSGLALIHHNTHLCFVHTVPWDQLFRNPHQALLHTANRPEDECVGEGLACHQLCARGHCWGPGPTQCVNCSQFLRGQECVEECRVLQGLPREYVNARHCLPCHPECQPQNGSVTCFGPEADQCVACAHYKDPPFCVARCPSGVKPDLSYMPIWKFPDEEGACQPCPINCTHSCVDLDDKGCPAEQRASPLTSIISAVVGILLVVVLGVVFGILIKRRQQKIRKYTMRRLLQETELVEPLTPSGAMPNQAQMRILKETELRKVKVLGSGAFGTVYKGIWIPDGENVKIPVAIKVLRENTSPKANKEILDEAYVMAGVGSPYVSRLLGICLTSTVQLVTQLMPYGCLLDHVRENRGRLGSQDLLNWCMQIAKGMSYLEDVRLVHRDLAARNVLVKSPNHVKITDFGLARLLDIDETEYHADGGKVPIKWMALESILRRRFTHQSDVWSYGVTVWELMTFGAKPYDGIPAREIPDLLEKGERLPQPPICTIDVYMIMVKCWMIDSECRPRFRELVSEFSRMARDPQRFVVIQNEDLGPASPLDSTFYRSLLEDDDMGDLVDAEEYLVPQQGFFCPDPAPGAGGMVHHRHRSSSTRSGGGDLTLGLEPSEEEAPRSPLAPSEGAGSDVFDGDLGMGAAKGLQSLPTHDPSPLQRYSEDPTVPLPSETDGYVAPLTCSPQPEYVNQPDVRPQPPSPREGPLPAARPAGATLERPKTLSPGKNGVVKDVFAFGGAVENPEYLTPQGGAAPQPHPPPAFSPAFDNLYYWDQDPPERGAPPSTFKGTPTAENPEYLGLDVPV

- inhibition at 1 h, 0.1 µM [1]: 20.6%
- inhibition at 1 h, 0.1 µM [2]: 19.2%
- inhibition [3]: Active
SMILES: C=CC(=O)Nc1ccc(-c2ccnc(Nc3ccc(N4CCOCC4)cc3)n2)cc1
- Activity (Mus musculus): Active
